The target of experiment [1] is T1, ERBB2 (Homo sapiens, UniProt P04626).
T1 construct: literature Ambit Biosciences
To be noted: 1 μM, duplicate, without preincubation; cited from earlier work.

For experiment [2], the target named is T2, PCTK1 (Homo sapiens, UniProt Q00536).
T2 construct: literature Ambit Biosciences
To be noted: 1 μM, duplicate, without preincubation; cited from earlier work.

The target of experiment [3] is T3, PDGFRB (Homo sapiens, UniProt P09619).
T3 construct: literature Ambit Biosciences
To be noted: 1 μM, duplicate, without preincubation; cited from earlier work.

Experiment [4] concerns the target T4, PRKCE (Homo sapiens, UniProt Q02156).
T4 construct: literature Ambit Biosciences
T4 sequence (Q02156 1-737): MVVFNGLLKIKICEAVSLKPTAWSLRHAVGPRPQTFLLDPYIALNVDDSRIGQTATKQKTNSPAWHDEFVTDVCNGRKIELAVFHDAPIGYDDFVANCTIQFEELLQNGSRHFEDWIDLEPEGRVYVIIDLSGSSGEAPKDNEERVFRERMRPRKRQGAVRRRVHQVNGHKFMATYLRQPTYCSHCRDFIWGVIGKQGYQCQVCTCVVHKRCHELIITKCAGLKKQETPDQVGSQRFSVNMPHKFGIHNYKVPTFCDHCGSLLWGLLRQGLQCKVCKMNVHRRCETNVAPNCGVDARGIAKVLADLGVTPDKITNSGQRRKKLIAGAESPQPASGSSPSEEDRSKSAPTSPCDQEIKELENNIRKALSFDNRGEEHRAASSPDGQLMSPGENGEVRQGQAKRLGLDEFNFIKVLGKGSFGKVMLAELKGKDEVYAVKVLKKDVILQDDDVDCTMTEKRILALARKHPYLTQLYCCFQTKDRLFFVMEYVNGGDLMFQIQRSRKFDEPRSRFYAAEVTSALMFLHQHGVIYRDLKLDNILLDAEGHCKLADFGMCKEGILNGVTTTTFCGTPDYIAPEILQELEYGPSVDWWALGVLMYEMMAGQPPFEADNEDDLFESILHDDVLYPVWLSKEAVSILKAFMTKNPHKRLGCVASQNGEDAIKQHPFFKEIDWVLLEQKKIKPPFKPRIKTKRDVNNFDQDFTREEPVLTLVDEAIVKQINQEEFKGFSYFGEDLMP
Particulars: 1 μM, duplicate, without preincubation; cited from earlier work.

Experiment [5] deals with T5, RAF1 (Homo sapiens, UniProt P04049).
T5 construct: literature Ambit Biosciences
Particulars: 1 μM, duplicate, without preincubation; cited from earlier work.

Experiment [6] deals with ABL-T315I (Homo sapiens, UniProt P00519, T315I). Kind of experiment: Nanosyn kinase profiling, % inhibition. It counts as biochemical. Particulars: panel of 230 kinases. How it is done: (§1) “Inhibiting kinase activity” means to decrease the production of an phosphor-peptide by a particular kinase that can be separated by analytical techniques. For example, a comprehensive platform of kinase, protease, phosphatase and epigenetic assays that utilizes cutting-edge microfluidics and informatics tools to provide accurate and rapid results. Profiling data in this application were determined using these techniques at Nanosyn Inc. IC50 data were provided by Reaction Biology Inc using a P33 radiolabeled kinase assay.
(§2) More modest activity for Aurora-A, FLT-1/4, KDR, KIT, PDGFRs was accompanied by better activity for B-Raf mutant and wild-type forms, Modest inhibition of MEK-1, BTK, c-Met, RET, and RON was also observed. […] Moreover, the observed inhibition of MEK-1 with 1-12 and TYK2 with I-6 represents additional activities against kinases for which no type-II inhibitors have been reported to date. […] To further evaluate the scope of inhibition, I-6 was evaluated against a larger panel of 230 kinases, Table-22.

Experiment [7] deals with ABL1 (Homo sapiens, UniProt P00519). Briefly: Nanosyn kinase profiling, % inhibition. The class given is biochemical. To be noted: panel of 230 kinases. How it is done:
as §1, §2

Experiment [8] addresses EPH-A1 (Homo sapiens, UniProt P21709). Briefly: Nanosyn kinase profiling, % inhibition. The class given is biochemical. Particulars: panel of 230 kinases. How it is done: as §1, §2
Experiment [9] has as its target EPH-A3 (Homo sapiens, UniProt P29320). Briefly: Nanosyn kinase profiling, % inhibition. It counts as biochemical. Particulars: panel of 230 kinases. How it is done:
as §1, §2

Experiment [10] deals with EPH-A4 (Homo sapiens, UniProt P54764). Kind of experiment: Nanosyn kinase profiling, % inhibition. Particulars: panel of 230 kinases. It counts as biochemical. Here is the method: as §1, §2
Experiment [11] addresses EPH-A5 (Homo sapiens, UniProt P54756). Briefly: Nanosyn kinase profiling, % inhibition. The class given is biochemical. Particulars: panel of 230 kinases. How it is done:
as §1, §2

Experiment [12] concerns the target FER (Homo sapiens, UniProt P16591). Kind of experiment: Nanosyn kinase profiling, % inhibition. Particulars: panel of 230 kinases. The class given is biochemical. Here is the method: as §1, §2
The target in experiment [13] is FGR (Homo sapiens, UniProt P09769). Kind of experiment: Nanosyn kinase profiling, % inhibition. To be noted: panel of 230 kinases. It counts as biochemical. How it is done:
as §1, §2

The target in experiment [14] is HIPK3 (Homo sapiens, UniProt Q9H422). Kind of experiment: Nanosyn kinase profiling, % inhibition. It counts as biochemical. To be noted: panel of 230 kinases. Here is the method: as §1, §2
Experiment [15] addresses LYNA (Homo sapiens, UniProt P07948). Briefly: Nanosyn kinase profiling, % inhibition. The class given is biochemical. Particulars: panel of 230 kinases. How it is done: as §1, §2
In experiment [16] the target is LYNB (Homo sapiens, UniProt P07948). Kind of experiment: Nanosyn kinase profiling, % inhibition. The class given is biochemical. Particulars: panel of 230 kinases. How it is done:
as §1, §2

For experiment [17], the target named is MAP4K2 (Homo sapiens, UniProt Q12851). Kind of experiment: Nanosyn kinase profiling, % inhibition. It counts as biochemical. Particulars: panel of 230 kinases. Here is the method:
as §1, §2

For experiment [18], the target named is MAP4K5 (Homo sapiens, UniProt Q9Y4K4). Kind of experiment: Nanosyn kinase profiling, % inhibition. The class given is biochemical. To be noted: panel of 230 kinases. How it is done:
as §1, §2

In experiment [19] the target is MEK2 (Homo sapiens, UniProt P36507). Briefly: Nanosyn kinase profiling, % inhibition. It counts as biochemical. To be noted: panel of 230 kinases. Here is the method: as §1, §2
Experiment [20] has as its target MER (Homo sapiens, UniProt Q12866). Kind of experiment: Nanosyn kinase profiling, % inhibition. The class given is biochemical. Particulars: panel of 230 kinases. How it is done: as §1, §2
Experiment [21] concerns the target T6, MKNK1 (Homo sapiens, UniProt Q9BUB5).
T6 construct: literature Ambit Biosciences
Briefly: Nanosyn kinase profiling, % inhibition. It counts as biochemical. Particulars: panel of 230 kinases. Here is the method: as §1, §2

Experiment [22] has as its target PTK5 (Homo sapiens, UniProt P42685). Kind of experiment: Nanosyn kinase profiling, % inhibition. Particulars: panel of 230 kinases. It counts as biochemical. How it is done:
as §1, §2

The target of experiment [23] is SIK (Homo sapiens, UniProt P57059). Briefly: Nanosyn kinase profiling, % inhibition. It counts as biochemical. To be noted: panel of 230 kinases. Here is the method:
as §1, §2

For experiment [24], the target named is SPHK1 (Homo sapiens, UniProt Q9NYA1). Kind of experiment: Nanosyn kinase profiling, % inhibition. It counts as biochemical. To be noted: panel of 230 kinases. Here is the method: as §1, §2
Experiment [25] concerns the target SPHK2 (Homo sapiens, UniProt Q9NRA0). Briefly: Nanosyn kinase profiling, % inhibition. Particulars: panel of 230 kinases. It counts as biochemical. How it is done:
as §1, §2

Experiment [26] has as its target SRC (Homo sapiens, UniProt P12931). Briefly: Nanosyn kinase profiling, % inhibition. Particulars: panel of 230 kinases. The class given is biochemical. How it is done:
as §1, §2

In experiment [27] the target is SRMS (Homo sapiens, UniProt Q9H3Y6). Kind of experiment: Nanosyn kinase profiling, % inhibition. It counts as biochemical. Particulars: panel of 230 kinases. Here is the method:
as §1, §2

Experiment [28] deals with TYRO3 (Homo sapiens, UniProt Q06418). Briefly: Nanosyn kinase profiling, % inhibition. The class given is biochemical. To be noted: panel of 230 kinases. Here is the method:
as §1, §2

T1 sequence (P04626 23-1255): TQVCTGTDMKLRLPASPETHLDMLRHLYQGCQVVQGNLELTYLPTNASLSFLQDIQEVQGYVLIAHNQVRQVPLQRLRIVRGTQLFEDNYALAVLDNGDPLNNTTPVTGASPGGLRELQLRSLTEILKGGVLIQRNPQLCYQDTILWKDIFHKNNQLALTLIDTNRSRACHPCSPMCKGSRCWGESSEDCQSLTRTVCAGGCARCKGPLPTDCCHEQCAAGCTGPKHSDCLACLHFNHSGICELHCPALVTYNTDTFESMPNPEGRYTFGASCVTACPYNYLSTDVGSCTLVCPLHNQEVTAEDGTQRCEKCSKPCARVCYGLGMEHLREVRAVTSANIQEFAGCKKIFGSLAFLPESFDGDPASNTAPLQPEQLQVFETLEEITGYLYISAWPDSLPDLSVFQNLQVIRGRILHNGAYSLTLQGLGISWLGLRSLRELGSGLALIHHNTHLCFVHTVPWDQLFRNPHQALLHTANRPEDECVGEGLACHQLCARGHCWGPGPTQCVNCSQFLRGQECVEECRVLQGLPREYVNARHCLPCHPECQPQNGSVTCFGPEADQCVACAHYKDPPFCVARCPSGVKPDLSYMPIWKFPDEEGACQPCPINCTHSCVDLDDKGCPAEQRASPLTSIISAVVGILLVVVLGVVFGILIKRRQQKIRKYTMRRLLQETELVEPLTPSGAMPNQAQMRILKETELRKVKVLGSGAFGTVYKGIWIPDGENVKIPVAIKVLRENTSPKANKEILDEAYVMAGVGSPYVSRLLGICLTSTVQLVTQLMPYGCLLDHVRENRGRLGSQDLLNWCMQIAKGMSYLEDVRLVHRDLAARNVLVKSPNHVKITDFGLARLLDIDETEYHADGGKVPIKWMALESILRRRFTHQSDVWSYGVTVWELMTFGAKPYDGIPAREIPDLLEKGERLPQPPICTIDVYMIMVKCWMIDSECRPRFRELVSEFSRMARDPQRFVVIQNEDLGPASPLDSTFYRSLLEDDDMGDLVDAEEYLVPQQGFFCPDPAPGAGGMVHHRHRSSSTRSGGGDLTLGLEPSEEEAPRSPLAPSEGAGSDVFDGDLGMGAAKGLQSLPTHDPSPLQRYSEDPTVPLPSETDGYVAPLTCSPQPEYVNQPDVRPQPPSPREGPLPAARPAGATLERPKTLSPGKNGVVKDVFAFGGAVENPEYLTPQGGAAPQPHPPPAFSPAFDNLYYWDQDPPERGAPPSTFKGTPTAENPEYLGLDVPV
T3 sequence (P09619 33-1106): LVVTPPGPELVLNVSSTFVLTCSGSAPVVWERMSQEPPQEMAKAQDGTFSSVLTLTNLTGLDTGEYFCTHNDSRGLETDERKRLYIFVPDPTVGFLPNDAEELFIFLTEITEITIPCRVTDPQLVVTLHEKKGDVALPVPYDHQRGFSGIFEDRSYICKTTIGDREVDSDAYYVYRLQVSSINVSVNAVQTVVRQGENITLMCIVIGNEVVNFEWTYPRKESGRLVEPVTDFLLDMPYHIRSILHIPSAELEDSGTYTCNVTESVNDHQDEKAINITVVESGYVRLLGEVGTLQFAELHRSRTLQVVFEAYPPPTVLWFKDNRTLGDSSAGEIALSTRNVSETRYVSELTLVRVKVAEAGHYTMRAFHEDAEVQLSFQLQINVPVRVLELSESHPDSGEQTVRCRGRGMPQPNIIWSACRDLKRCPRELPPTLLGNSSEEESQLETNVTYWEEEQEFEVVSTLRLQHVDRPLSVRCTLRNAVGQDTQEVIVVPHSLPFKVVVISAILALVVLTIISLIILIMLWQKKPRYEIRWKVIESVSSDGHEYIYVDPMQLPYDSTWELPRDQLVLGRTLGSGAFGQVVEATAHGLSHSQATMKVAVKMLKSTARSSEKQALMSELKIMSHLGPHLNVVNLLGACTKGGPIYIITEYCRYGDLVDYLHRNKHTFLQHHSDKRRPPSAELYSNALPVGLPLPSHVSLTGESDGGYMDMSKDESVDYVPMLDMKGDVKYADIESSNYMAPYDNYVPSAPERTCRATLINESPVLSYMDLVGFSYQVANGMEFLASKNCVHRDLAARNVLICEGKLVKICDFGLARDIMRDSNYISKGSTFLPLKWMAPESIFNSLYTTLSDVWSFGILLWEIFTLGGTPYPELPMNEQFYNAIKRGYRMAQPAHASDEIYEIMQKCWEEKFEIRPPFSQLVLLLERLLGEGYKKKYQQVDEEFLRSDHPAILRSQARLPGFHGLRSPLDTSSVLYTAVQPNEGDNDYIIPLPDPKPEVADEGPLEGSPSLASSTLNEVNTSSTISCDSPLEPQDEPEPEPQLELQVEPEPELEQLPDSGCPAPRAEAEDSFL
T5 sequence (P04049 whole entry): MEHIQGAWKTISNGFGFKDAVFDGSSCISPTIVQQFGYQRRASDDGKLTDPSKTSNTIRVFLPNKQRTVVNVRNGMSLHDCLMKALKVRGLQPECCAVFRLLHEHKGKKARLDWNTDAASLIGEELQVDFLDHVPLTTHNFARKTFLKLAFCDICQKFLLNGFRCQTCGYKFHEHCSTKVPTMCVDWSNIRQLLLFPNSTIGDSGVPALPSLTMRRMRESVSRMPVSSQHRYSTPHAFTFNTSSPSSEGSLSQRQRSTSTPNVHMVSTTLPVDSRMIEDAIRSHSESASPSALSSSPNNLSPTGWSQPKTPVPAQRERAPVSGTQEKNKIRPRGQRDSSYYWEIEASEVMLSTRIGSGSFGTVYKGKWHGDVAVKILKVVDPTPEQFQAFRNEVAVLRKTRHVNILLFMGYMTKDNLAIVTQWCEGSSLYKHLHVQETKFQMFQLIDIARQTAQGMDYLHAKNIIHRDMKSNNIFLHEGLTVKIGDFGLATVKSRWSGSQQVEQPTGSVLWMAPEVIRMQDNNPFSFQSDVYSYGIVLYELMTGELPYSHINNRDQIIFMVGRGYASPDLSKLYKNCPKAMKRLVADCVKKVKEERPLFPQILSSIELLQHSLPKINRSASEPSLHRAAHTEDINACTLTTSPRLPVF
Sequence of EPH-A3 (P29320 21-983): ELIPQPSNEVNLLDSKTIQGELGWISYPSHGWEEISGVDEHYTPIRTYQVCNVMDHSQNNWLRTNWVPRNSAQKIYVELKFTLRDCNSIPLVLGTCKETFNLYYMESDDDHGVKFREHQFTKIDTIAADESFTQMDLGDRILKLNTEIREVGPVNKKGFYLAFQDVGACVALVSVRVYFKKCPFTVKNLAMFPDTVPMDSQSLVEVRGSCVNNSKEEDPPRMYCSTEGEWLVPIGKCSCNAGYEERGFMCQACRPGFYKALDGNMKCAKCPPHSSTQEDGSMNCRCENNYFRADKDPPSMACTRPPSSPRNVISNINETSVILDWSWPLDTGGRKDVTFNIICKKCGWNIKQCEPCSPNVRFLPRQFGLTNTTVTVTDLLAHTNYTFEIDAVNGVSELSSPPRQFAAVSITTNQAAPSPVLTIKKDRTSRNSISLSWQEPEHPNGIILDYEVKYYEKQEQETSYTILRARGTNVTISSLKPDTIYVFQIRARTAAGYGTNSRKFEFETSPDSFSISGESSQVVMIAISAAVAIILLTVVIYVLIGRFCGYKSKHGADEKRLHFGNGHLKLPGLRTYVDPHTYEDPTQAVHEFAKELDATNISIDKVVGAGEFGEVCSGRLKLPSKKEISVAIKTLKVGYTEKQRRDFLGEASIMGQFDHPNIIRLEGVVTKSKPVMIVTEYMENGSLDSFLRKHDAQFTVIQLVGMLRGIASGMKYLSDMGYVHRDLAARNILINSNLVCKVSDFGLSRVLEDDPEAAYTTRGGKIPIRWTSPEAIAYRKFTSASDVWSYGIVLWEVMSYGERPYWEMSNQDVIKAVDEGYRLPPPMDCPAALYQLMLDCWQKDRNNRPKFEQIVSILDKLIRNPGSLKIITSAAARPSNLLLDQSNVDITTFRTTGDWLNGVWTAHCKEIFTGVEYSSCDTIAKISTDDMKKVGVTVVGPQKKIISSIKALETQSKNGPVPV
Sequence of SPHK2 (Q9NRA0 whole entry): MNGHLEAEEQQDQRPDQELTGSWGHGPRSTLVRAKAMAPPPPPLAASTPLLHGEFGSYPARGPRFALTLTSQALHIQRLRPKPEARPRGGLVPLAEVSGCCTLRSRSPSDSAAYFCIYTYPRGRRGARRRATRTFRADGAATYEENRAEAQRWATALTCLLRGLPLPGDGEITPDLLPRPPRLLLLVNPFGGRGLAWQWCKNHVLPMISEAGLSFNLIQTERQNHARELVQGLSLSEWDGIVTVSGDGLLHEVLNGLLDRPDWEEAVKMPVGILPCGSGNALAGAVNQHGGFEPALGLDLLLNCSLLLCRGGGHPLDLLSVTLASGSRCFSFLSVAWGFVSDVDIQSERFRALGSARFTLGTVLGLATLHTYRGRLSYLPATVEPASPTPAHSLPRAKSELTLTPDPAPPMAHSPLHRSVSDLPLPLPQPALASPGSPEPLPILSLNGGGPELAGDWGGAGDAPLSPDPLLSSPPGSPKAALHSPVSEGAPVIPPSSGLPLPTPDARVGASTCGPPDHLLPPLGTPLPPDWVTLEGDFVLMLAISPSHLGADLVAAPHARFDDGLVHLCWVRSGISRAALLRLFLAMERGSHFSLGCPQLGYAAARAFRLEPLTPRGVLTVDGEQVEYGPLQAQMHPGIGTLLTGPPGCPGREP
T2 sequence (Q00536 whole entry): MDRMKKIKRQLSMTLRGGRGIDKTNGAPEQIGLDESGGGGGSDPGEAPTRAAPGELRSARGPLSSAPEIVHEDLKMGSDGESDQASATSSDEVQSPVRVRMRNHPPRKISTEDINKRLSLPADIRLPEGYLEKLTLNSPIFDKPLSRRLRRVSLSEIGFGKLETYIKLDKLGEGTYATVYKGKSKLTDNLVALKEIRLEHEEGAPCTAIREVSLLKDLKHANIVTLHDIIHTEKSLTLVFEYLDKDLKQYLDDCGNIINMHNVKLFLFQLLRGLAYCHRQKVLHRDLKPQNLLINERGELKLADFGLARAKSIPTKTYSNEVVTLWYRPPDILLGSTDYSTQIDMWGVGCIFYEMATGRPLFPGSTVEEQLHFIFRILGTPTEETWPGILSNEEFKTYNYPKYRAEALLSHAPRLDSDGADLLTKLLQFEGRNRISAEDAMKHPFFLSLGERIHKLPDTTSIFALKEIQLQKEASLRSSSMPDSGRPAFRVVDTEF

`Cc1ccc(-c2nc(C(F)(F)F)[nH]c2C(=O)Nc2ccc(C)c(Nc3ccc4ncn(C)c(=O)c4c3)c2)cc1F` [KIN-038]: the “inhibition of ERBB2” value in [1] is reported as “X (X > 25% @ 1 μM)”. In [2], the “inhibition of PCTK1” value is “X (X > 25% @ 1 μM)”. Besides, the “inhibition of PDGFRB” value in experiment [3] is recorded as “XX (XX > 50% @ 1 μM)”. For the same compound, the “inhibition of PRKCE” value in [4] is given as “X (X > 25% @ 1 μM)”. The “inhibition of RAF1” value in experiment [5] is “XXXX (XXXX > 90% @ 1 μM)”.
In the case of `Cc1ccc(NC(=O)c2[nH]c(C(F)(F)F)nc2-c2ccc(F)cc2)cc1Nc1ccc2ncn(C)c(=O)c2c1` [KIN-035], the “inhibition of ERBB2” value in [1] is “X (X > 25% @ 1 μM)”. The “inhibition of PDGFRB” value in experiment [3] is listed as “XXX (XXX > 75% @ 1 μM)”. For the same compound, the “inhibition of PRKCE” value in [4] is given as “X (X > 25% @ 1 μM)”. Further, the “inhibition of RAF1” value in [5] was “XXXX (XXXX > 90% @ 1 μM)”.
As usually defined, the inhibition is the percentage by which the read-out fell short of the control. A lower inhibition goes with little suppression. Take `CNC(=O)c1cc(Oc2ccc(NC(=O)c3nc(C(F)(F)F)[nH]c3-c3ccc(F)cc3)cc2)ccn1` [Inhibitor I-6, 4-(4-{[5-(4-Fluoro-phenyl)-2-trifluoromethyl-3H-imidazole-4-carbonyl]-amino}-phenoxy)-pyridine-2-carboxylic acid methylamide]: the inhibition at 5 µM in experiment [6], in [7], in [8], in [9], in [10] and in experiment [11] was no less than 50% in each case. The inhibition at 5 µM in experiment [12], in [13], in experiment [14], in experiment [15], in experiment [16] and in [17] was no less than 50% throughout. Besides, the inhibition at 5 µM in experiment [18], in experiment [19], in [20], in [21], in experiment [22] and in experiment [23] was no less than 50% in each case. The inhibition at 5 µM in experiment [24], in [25], in [26], in experiment [27] and in experiment [28] was no less than 50% each time.

The values above are taken from patent publication US9833455B2, “Preparation and methods of use for ortho-aryl 5-membered heteroaryl-carboxamide containing multi-targeted kinase inhibitors” (Spacefill Enterprises LLC, priority 2011, dated 2017).
